Patent US9618513B2, “Compositions and methods for detecting and treating colorectal cancer” (The Regents of the University of Michigan, priority 2014, dated 2017)

Key:
[1] = tested on: DLD-1 colon cancer cells; experiment: Colon cancer sphere assay, DLD-1 cells; format: cell-based, human
Text: (A), IL-22 is expressed in colon cancer tissues. IL-22 mRNA was detected by real-time PCR in colon cancer tissues and peripheral blood. *P<0.05 compared to blood, 20 colon cancer patients. (B-D), Endogenous IL-22 promotes colon carcinogenesis. Single cells (10^7) isolated from colon cancer tissue were mixed with anti-IL-22 antibody or control mAb, and then subcutaneously injected to NSG mice. Tumor growth (B), incidence (C), and animal survival (D) are shown. (P<0.05 for all, n=5 per group). (E-G) Recombinant IL-22 promotes colon carcinogenesis. DLD-1 colon cancer cells (10^5) were pre-incubated with IL-22 (20 ng/ml) for 1 hour, and then subcutaneously injected to NSG mice. Tumor growth (E), incidence (F), and animal survival (G) are shown. (P<0.05 for all, n=5 per group). (H, I) IL-22 enhances colon cancer sphere formation. DLD-1 colon cancer cells were pre-incubated for 24 hours with IL-22. […] ALDH activity was determined by FACS based on aldefluor fluorescence. […] Results are expressed as fold changes of ALDH expression. […] The mRNA of stem cell core gene was detected by real-time PCR (K) and proteins were detected by western blotting (L, M). […]
(A) IL-22 induces H3K79me2 in colon cancer cells. […] Total histone modifications were analyzed by western blot. […] Sphere numbers were recorded. […] DOT1L complex gene expression was quantified by real-time PCR. […] Sphere numbers were recorded. […]

[2] = tested on: colon cancer cells; experiment: Colon cancer cell proliferation (Ki67 FACS, H3 thymidine incorporation, cell counting); format: cell-based, human
Text: A. GSEA analysis identifies proliferation pathways have positive correlation with IL-22. B. Cell proliferation maker Ki67 was detected by FACS. C. H^3 Thymidine Incorporation was used to detect the function of IL-22 in cell proliferation. D. Cell number was counted after stimulated with IL-22. E. Cells isolated from colon cancer tissue (Tumor cells and Leukocytes) were stimulated with a-CD3 and […] for 3 days, and supernatant mixed with or without anti-IL-22 antibody was co-cultured with DLD1 cells for 24 h to test cell proliferation. F. Cell cyclin-dependent kinase and kinase inhibitors were analyzed by Real-Time PCR.
A, C. Cell proliferation was analyzed using H^3 Thymidine Incorporation. B. The level of total H3K79m2 and H3K27me3 was measured by Western Blot. D. PcG proteins of EZH2, EED, SUZ12 was increased with IL-22(20 ng/ml) treatment. E. EZH2, SUZ12 and EED was detected by Western Blot after IL-22 treated for 24 h or 48 h. F. EZH2 inhibitor DZNep reduced cell proliferation. G.H. The efficiency of EZH2 and SUZ12 knock down was tested by Western Blot. I.J. Cell proliferation was analyzed using H^3 Thymidine Incorporation after knock down of EZH2 and SUZ12. K.L. Relative expression of cyclin-dependent kinase inhibitors (p16 and p18) in shEZH2, shSUZ12 and Dznep treated cells after IL-22 treatment. M. The level of H3K27me3 in the promoter of p16 and p18 was analyzed by ChIP assay.
A. The protein level of phosphorylated STAT3, STAT1 and STATS were activated by IL-22. B. The effect of STAT3 knock down. C. The effect of IL-22 on cell proliferation was analyzed using H^3 Thymidine Incorporation in Stat3 knock down cells. D. Knock down of STAT3 reduced the expression of EZH2 and SUZ12. E. Based on the ENCODE STAT3-ChIP-Seq data base, STAT3 occupancy on the promoter areas of SUZ12 and EED is shown. F. SUZ12/EED DNA was detected by ChIP assay using an antibody against STAT3, c-fos was used as a positive control.
Three primary colon cancer cell lines (SB, WR, JR) were established from fresh colon tissues. These primary colon cancer cells and DLD1 (ATCC) were studied. Colon cancer cells were treated with recombinant IL-22 (R&D) for different time points. The EZH2 inhibitor DZNep was added in conventional or sphere culture (see, e.g., Kryczek, I., et al., (2012) International journal of cancer 130, 29-39). Tumor cell sphere formation and gene expression were examined (see, e.g., Kryczek, I., et al., (2012) International journal of cancer 130, 29-39).

Row | Compound | sphere formation induced by IL-22 ([1]; DLD-1 cells, in the presence of IL-22, inhibitor 10 uM) | colon cancer cell proliferation induced by IL-22 ([2]; H3 thymidine incorporation) | tumor sphere formation ([1]; DLD-1 pre-incubated 24 hours with IL-22, 2,000 cells) | expression of Ki-67 ([2]; FACS) | cell proliferation ([2]; H3 thymidine incorporation and cell number counting)
1 | CC(C)N(CCCNC(=O)Nc1ccc(C(C)(C)C)cc1)C[C@H]1O[C@@H](n2ccc3c(N)ncnc32)[C@H](O)[C@@H]1O [EPZ004777] | suppressed | no influence |  |  | 
2 | IL-22: recombinant IL-22 (R&D systems), cytokine interleukin-22 |  |  | promoted tumor sphere formation in a dose dependent manner | increased | increased
